What was measured:
[1] = target: recombinant human GAA (acid alpha-glucosidase) (Homo sapiens, UniProt P10253); experiment: Acid alpha-glucosidase (GAA) assay (4-methylumbelliferyl-alpha-D-pyranoside substrate, fluorescence); format: biochemical
Summary of the method: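 IC50 from 4-PL curve fit of percent inhibition, based on fluorescence (365/440 nm) of released methylumbelliferone relative to uninhibited enzyme. Compound dilutions and human GAA incubated 60 min, 37 °C, before 20 min substrate reaction at 37 °C, quenched at pH 10.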

[2] = target: rat sucrase (partially purified alpha-glucosidase from intestinal rat powder) (Rattus norvegicus, UniProt P23739); experiment: Intestinal alpha-glucosidase assay, sucrose substrate (Glucose GO Kit); format: biochemical
Summary of the method: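 Glucose release is the read-out: compounds at multiple dilutions are first held with partially purified rat intestinal alpha-glucosidase for 60 min at 37 °C, after which maltose or sucrose substrate reacts for 30 min at 37 °C before a 5 min 90 °C stop. IC50 comes from a four-parameter logistic fit.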

rat sucrase (partially purified alpha-glucosidase from intestinal rat powder), sequence (P23739 whole entry): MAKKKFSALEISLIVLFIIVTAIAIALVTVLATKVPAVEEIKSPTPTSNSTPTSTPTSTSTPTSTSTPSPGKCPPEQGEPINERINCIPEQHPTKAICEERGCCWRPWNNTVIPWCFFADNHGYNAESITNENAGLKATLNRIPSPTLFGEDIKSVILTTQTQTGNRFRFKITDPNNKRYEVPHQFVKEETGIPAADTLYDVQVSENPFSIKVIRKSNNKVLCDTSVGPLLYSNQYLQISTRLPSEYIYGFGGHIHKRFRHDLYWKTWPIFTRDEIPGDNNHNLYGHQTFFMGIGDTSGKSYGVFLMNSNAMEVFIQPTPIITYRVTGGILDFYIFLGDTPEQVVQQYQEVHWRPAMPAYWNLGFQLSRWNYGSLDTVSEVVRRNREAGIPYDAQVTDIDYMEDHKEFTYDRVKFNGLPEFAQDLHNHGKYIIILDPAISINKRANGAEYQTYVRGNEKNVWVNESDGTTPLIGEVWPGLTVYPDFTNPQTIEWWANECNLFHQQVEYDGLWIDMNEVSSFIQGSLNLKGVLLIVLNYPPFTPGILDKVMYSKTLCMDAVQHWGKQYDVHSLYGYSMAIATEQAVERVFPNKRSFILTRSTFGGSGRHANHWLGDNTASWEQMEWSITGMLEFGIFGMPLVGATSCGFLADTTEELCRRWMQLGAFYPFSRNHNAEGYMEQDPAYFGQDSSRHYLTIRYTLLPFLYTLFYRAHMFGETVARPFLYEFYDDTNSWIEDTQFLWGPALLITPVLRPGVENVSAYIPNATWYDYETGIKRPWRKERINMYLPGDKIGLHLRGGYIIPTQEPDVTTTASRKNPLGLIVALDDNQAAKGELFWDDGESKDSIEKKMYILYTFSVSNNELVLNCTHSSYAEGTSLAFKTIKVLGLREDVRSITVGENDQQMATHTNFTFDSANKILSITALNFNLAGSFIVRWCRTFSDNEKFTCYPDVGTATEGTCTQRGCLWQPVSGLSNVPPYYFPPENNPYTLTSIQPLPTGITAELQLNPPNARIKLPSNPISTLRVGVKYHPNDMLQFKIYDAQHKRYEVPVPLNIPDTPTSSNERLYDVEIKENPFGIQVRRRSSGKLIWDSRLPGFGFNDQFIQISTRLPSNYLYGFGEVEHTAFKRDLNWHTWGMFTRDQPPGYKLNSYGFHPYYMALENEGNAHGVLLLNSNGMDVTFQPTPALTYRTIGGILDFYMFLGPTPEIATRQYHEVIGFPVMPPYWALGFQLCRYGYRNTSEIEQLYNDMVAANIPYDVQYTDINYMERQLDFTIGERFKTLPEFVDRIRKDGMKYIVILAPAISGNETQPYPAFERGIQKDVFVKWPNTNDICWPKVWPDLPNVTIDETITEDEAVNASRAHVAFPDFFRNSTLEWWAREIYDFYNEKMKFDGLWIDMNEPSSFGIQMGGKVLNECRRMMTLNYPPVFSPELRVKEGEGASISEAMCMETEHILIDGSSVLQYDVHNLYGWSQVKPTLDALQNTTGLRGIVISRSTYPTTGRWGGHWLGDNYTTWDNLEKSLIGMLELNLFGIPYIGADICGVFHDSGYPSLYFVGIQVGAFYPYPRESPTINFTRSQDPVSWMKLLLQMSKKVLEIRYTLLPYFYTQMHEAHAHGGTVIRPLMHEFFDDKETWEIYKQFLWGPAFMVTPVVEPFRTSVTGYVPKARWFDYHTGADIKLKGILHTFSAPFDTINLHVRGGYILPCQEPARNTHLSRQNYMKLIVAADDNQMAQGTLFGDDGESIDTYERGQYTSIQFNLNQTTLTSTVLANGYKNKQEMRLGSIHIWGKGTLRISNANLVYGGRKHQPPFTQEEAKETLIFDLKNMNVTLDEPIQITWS

Structure (SMILES)	IC50 [1]	IC50 [2]
Cc1cc(NCc2ccc(CN3C[C@H](O)[C@@H](O)[C@H](O)[C@H]3CO)cc2)cc(-c2cccnn2)c1 [Compound 1052, (2R,3R,4R,5S)-2-(hydroxymethyl)-1-{[4-({[3-methyl-5-(pyridazin-3-yl)phenyl]amino}methyl)phenyl]methyl}piperidine-3,4,5-trio]	150 nM	60 nM
OC[C@@H]1[C@@H](O)[C@H](O)[C@@H](O)CN1Cc1ccc(CNc2cc(-c3ncccn3)cc(C3CC3)c2)cc1 [Compound 1013, (2R,3R,4R,5S)-1-{[4-({[3-cyclopropyl-5-(pyrimidin-2-yl)phenyl]amino}methyl)phenyl]methyl}-2-(hydroxymethyl)piperidine-3,4,5-triol]	254 nM	26 nM
N#Cc1cc(NCc2cccc(CN3C[C@H](O)[C@@H](O)[C@H](O)[C@H]3CO)c2)cc(C2=COCCO2)c1 [Compound 1044, 3-(5,6-dihydro-1,4-dioxin-2-yl)-5-{[(3-{[(2R,3R,4R,5S)-3,4,5-trihydroxy-2-(hydroxymethyl)piperidin-1-yl]methyl}phenyl)methyl]amino}benzonitrile]	1420 nM	< 1 nM
COC(OC)c1cc(NCCCCCCN2C[C@H](O)[C@@H](O)[C@H](O)[C@H]2CO)cc(-c2ncccn2)c1 [Compound 1124, (2R,3R,4R,5S)-1-(6-{[3-(dimethoxymethyl)-5-(pyrimidin-2-yl)phenyl]amino}hexyl)-2-(hydroxymethyl)piperidine-3,4,5-triol]	36 nM	147 nM
[N-]=[N+]=Nc1ccc(NCC/C=C/CCN2C[C@H](O)[C@@H](O)[C@H](O)[C@H]2CO)c([N+](=O)[O-])c1 [Compound 1260, (2R,3R,4R,5S)-1-[(3E)-6-[(4-azido-2-nitrophenyl)amino]hex-3-en-1-yl]-2-(hydroxymethyl)piperidine-3,4,5-triol]	44 nM	29 nM
N#Cc1cc(NCCCCCCN2C[C@H](O)[C@@H](O)[C@H](O)[C@H]2CO)cc(-c2ncccn2)c1 [Compound 1130, 3-(pyrimidin-2-yl)-5-({6-[(2R,3R,4R,5S)-3,4,5-trihydroxy-2-(hydroxymethyl)piperidin-1-yl]hexyl}amino)benzonitrile]	12 nM	30 nM
Cc1cc(NCc2cccc(CN3C[C@H](O)[C@@H](O)[C@H](O)[C@H]3CO)c2)cc(-c2ncccn2)c1 [Compound 1035, (2R,3R,4R,5S)-2-(hydroxymethyl)-1-{[3-({[3-methyl-5-(pyrimidin-2-yl)phenyl]amino}methyl)phenyl]methyl}piperidine-3,4,5-triol]	5100 nM	51 nM
O=Cc1cc(NCCCCCCN2C[C@H](O)[C@@H](O)[C@H](O)[C@H]2CO)cc(-c2ncccn2)c1 [Compound 1129, 3-(pyrimidin-2-yl)-5-({6-[(2R,3R,4R,5S)-3,4,5-trihydroxy-2-(hydroxymethyl)piperidin-1-yl]hexyl}amino)benzaldehyde]	28 nM	56 nM
COc1cc(NCCCCCCN2C[C@H](O)[C@@H](O)[C@H](O)[C@H]2CO)cc(C2CCCO2)c1 (stereo partly drawn) [Compound 1146, (2R,3R,4R,5S)-2-(hydroxymethyl)-1-(6-{[3-methoxy-5-(oxolan-2-yl)phenyl]amino}hexyl)piperidine-3,4,5-triol]	68 nM	92 nM
CS(=O)(=O)c1cc(NCc2cccc(CN3C[C@H](O)[C@@H](O)[C@H](O)[C@H]3CO)c2)cc(-c2cccnn2)c1 [Compound 1040, (2R,3R,4R,5S)-2-(hydroxymethyl)-1-{[3-({[3-methanesulfonyl-5-(pyridazin-3-yl)phenyl]amino}methyl)phenyl]methyl}piperidine-3,4,5-triol]	1300 nM	126 nM
COc1cc(CN2CCCO2)cc(NCCCCCCN2C[C@H](O)[C@@H](O)[C@H](O)[C@H]2CO)c1 [Compound 1182, (2R,3R,4R,5S)-2-(hydroxymethyl)-1-[6-({3-methoxy-5-[(1,2-oxazolidin-2-yl)methyl]phenyl}amino)hexyl]piperidine-3,4,5-triol]	33 nM	179 nM
COc1cc(NCCCCCCN2C[C@H](O)[C@@H](O)[C@H](O)[C@H]2CO)cc(-c2ccccc2)c1 [Compound 1150, (2R,3R,4R,5S)-2-(hydroxymethyl)-1-[6-({5-methoxy-[1,1′-biphenyl]-3-yl}amino)hexyl]piperidine-3,4,5-triol]	45 nM	< 1 nM
O=[N+]([O-])c1cc(N2CCOCC2)ccc1NCc1cccc(CN2C[C@H](O)[C@@H](O)[C@H](O)[C@H]2CO)c1 [Compound 1067, (2R,3R,4R,5S)-2-(hydroxymethyl)-1-{[3-({[4-(morpholin-4-yl)-2-nitrophenyl]amino}methyl)phenyl]methyl}piperidine-3,4,5-triol]	426 nM	80 nM
COc1cc(C#N)cc(NCCc2ccc(CCN3C[C@H](O)[C@@H](O)[C@H](O)[C@H]3CO)cc2)c1 [Compound 1133, 3-methoxy-5-{[2-(4-{2-[(2R,3R,4R,5S)-3,4,5-trihydroxy-2-(hydroxymethyl)piperidin-1-yl]ethyl}phenyl)ethyl]amino}benzonitrile]	542 nM	237 nM
Cc1cc(NCc2cccc(CN3C[C@H](O)[C@@H](O)[C@H](O)[C@H]3CO)n2)cc(-c2ccc[nH]2)c1 [Compound 1335, (2R,3R,4R,5S)-2-(hydroxymethyl)-1-{[6-({[3-methyl-5-(1H-pyrrol-2-yl)phenyl]amino}methyl)pyridin-2-yl]methyl}piperidine-3,4,5-triol]	470 nM	321 nM
[N-]=[N+]=Nc1ccc(NCc2cc(CCN3C[C@H](O)[C@@H](O)[C@H](O)[C@H]3CO)cs2)c([N+](=O)[O-])c1 [Compound 1174, (2R,3R,4R,5S)-1-[2-(5-{[(4-azido-2-nitrophenyl)amino]methyl}thiophen-3-yl)ethyl]-2-(hydroxymethyl)piperidine-3,4,5-triol]	230 nM	1 nM
CN(C)C(=O)c1cc(NCCCCCCN2C[C@H](O)[C@@H](O)[C@H](O)[C@H]2CO)cc(-c2ncccn2)c1 [Compound 1126, N,N-dimethyl-3-(pyrimidin-2-yl)-5-({6-[(2R,3R,4R,5S)-3,4,5-trihydroxy-2-(hydroxymethyl)piperidin-1-yl]hexyl}amino)benzamide]	86 nM	13500 nM
OC[C@@H]1[C@@H](O)[C@H](O)[C@@H](O)CN1CCCCCCNc1cc(-c2ncccn2)cc(C(F)(F)F)c1 [Compound 1131, (2R,3R,4R,5S)-2-(hydroxymethyl)-1-(6-{[3-(pyrimidin-2-yl)-5-(trifluoromethyl)phenyl]amino}hexyl)piperidine-3,4,5-triol]	25 nM	40 nM
COc1cc(NCCCCCCN2C[C@H](O)[C@@H](O)[C@H](O)[C@H]2CO)cc(-c2cnccn2)c1 [Compound 1197, (2R,3R,4R,5S)-2-(hydroxymethyl)-1-(6-{[3-methoxy-5-(pyrazin-2-yl)phenyl]amino}hexyl)piperidine-3,4,5-triol]	37 nM	177 nM
CS(=O)(=O)c1cc(NCc2ccc(CN3C[C@H](O)[C@@H](O)[C@H](O)[C@H]3CO)cc2)cc(-c2cccnn2)c1 [Compound 1058, (2R,3R,4R,5S)-2-(hydroxymethyl)-1-{[4-({[3-methanesulfonyl-5-(pyridazin-3-yl)phenyl]amino}methyl)phenyl]methyl}piperidine-3,4,5-triol]	78 nM	46 nM
OC[C@@H]1[C@@H](O)[C@H](O)[C@@H](O)CN1CCCCCCNc1cc(-c2ncccn2)cc(C2CC2)c1 [Compound 1009, (2R,3R,4R,5S)-1-(6-{[3-cyclopropyl-5-(pyrimidin-2-yl)phenyl]amino}hexyl)-2-(hydroxymethyl)piperidine-3,4,5-triol]	62 nM	71 nM
OC[C@@H]1[C@@H](O)[C@H](O)[C@@H](O)CN1CCCCCCNc1cc(-c2cccnn2)cc(C2CC2)c1 [Compound 1008, (2R,3R,4R,5S)-1-(6-{[3-cyclopropyl-5-(pyridazin-3-yl)phenyl]amino}hexyl)-2-(hydroxymethyl)piperidine-3,4,5-triol]	64 nM	78 nM
OC[C@@H]1[C@@H](O)[C@H](O)[C@@H](O)CN1CCCCCCNc1cc(Cl)cc(CN2CCCO2)c1 [Compound 1183, (2R,3R,4R,5S)-1-[6-({3-chloro-5-[(1,2-oxazolidin-2-yl)methyl]phenyl}amino)hexyl]-2-(hydroxymethyl)piperidine-3,4,5-triol]	90 nM	94 nM
[N-]=[N+]=Nc1ccc(NCCc2ccc(CCN3C[C@@H](O)[C@H](O)[C@@H](O)[C@@H]3CO)c3ccccc23)c([N+](=O)[O-])c1 (stereo in doubt) [Compound 1178, (2S,3S,4S,5R)-1-[2-(4-{2-[(4-azido-2-nitrophenyl)amino]ethyl}naphthalen-1-yl)ethyl]-2-(hydroxymethyl)piperidine-3,4,5-triol]	5930 nM	71500 nM
COc1cc(NCCc2ccc(CCN3C[C@H](O)[C@@H](O)[C@H](O)[C@H]3CO)cc2)cc(-c2ccco2)c1 [Compound 1153, (2R,3R,4R,5S)-1-{2-[4-(2-{[3-(furan-2-yl)-5-methoxy-phenyl]amino}ethyl)phenyl]ethyl}-2-(hydroxymethyl)piperidine-3,4,5-triol]	57 nM	2500 nM
[N-]=[N+]=Nc1ccc(NCCn2cc(CCN3C[C@H](O)[C@@H](O)[C@H](O)[C@H]3CO)c3ccccc32)c([N+](=O)[O-])c1 [Compound 1177, (2R,3R,4R,5S)-1-[2-(1-{2-[(4-azido-2-nitrophenyl)amino]ethyl}-1H-indol-3-yl)ethyl]-2-(hydroxymethyl)piperidine-3,4,5-triol]	5540 nM	883 nM

— patent US20250197372A1 (priority 2020, published 2025)
